The results in this text go back to publication PMC6437269, “OXA-48-Mediated Ceftazidime-Avibactam Resistance Is Associated with Evolutionary Trade-Offs” (mSphere, 2019).

In brackets after ≈: the same amount, converted by molar mass. Like-named read-outs stand apart in the source and are kept apart here.

Data set [1] relates to E. coli MG1655 (MP100). Put plainly: microbe, parasite or virus in culture. The format is cell-based, Escherichia coli. The following applies: Escherichia coli, MG1655. Here is the method:
(§1) For MIC determination, single colonies were suspended in 0.9% saline buffer to a 0.5 McFarland standard and further diluted 1:100 in MH broth. Fifty microliters of the bacterial suspension was loaded onto in-house-designed and premade Sensititre microtiter plates (TREK Diagnostic Systems/Thermo Fisher Scientific, East Grinstead, United Kingdom). The plates were incubated for 20 h at 37°C. Antibiotic susceptibility testing was performed in duplicates.

Data set [2] relates to MP107 (MP100 transformed with p50579417_3_OXA-48-CAZ). Put plainly: MIC determination, MP107 (MG1655 with CAZ-adapted plasmid). The format is cell-based. The following applies: Escherichia coli; Table 6; MP107, adapted plasmid p50579417-OXA-48-CAZ. Here is the method:
as §1

Data set [3] deals with MP108 (MP100 transformed with p50579417_3_OXA-48-CAZ-AVI). Put plainly: MIC determination, MP108 (MG1655 with CAZ-AVI-adapted plasmid). The data set is classed as cell-based. The following applies: Escherichia coli; Table 6; MP108, adapted plasmid p50579417-OXA-48-CAZ-AVI. The protocol: as §1
For data set [4], the system named is E. coli TOP10. Put plainly: microbe, parasite or virus in culture. The data set is classed as cell-based. The conditions noted are these: Escherichia coli. The protocol: as §1
The test system of data set [5] is MP104 (E. coli TOP10 expressing native OXA-48). The experiment in a line: MIC determination, TOP10 expressing native OXA-48 (MP104). The format is cell-based. The following applies: Escherichia coli; Table 3; MP104, native OXA-48 in pCR-blunt II TOPO. Here is the method:
as §1
For a functional resistance profile, the native and mutated blaOXA-48 genes were cloned in the pCR-blunt II-TOPO vector (Invitrogen, CA) and expressed in E. coli TOP10 (Invitrogen, CA). The PCR product was obtained by Phusion High Fidelity PCR mastermix with High Fidelity buffer (New England Biolabs, MA) and preOXA-48 primers ([61]). Transformants were selected on LB agar plates containing 50 or 100 mg/liter ampicillin. Insertion size was verified by Sanger sequencing using M13 forward (5′-[…]-3′) and reverse (5′-[…]-3′) primers.

The subject of data set [6] is MP101 (MP100 transformed with p50579417_3_OXA-48). Put plainly: MIC determination, MP101 (MG1655 with native OXA-48 plasmid). The format is cell-based, Escherichia coli. The conditions noted are these: Escherichia coli; Table 6; MP101, native plasmid; read-out: MIC.
Excerpt: Mueller-Hinton (MH) agar and broth were purchased from Thermo Fisher Scientific (East Grinstead, United Kingdom). Luria-Bertani (LB) broth, LB agar, ampicillin, amoxicillin, cefepime, CAZ, imipenem, meropenem, piperacillin, and tazobactam were obtained from Sigma-Aldrich (St. Louis, MO). Nitrocefin was purchased from Merck (Darmstadt, Germany). The characteristics of the clinical E. coli strain 50579417 harboring the OXA-48 plasmid (p50579417_3_OXA-48) have been described previously ([61], [62]). The plasmid p50579417_3_OXA-48 was conjugated into rifampin-resistant E. coli TOP10 and subsequently isolated using a plasmid mini-purification kit (Qiagen, Germany). E. coli MG1655 (DA4201) was electroporated with p50579417_3_OXA-48 as published previously ([63]). Transformants positive for blaOXA-48 were checked by PCR using REDTaq ready mix (Sigma-Aldrich, St. Louis, MO) and preOXA-48 primers ([61]).
as §1

The subject of data set [7] is MP105 (E. coli TOP10 expressing OXA-48:P68A). The experiment in a line: microbe, parasite or virus in culture. The format is cell-based. The conditions noted are these: Escherichia coli; Table 3; MP105, OXA-48:P68A in pCR-blunt II TOPO.
The target in data set [8] is OXA-48:P68A (Klebsiella pneumoniae, UniProt Q6XEC0, P68A). The experiment in a line: Steady-state enzyme kinetics, OXA-48:P68A. The conditions noted are these: substrate hydrolysis, 25°C, pH 7.0, error = 95% CI. The data set is classed as biochemical.
Chain of OXA-48:P68A (Q6XEC0 23-265 P68A): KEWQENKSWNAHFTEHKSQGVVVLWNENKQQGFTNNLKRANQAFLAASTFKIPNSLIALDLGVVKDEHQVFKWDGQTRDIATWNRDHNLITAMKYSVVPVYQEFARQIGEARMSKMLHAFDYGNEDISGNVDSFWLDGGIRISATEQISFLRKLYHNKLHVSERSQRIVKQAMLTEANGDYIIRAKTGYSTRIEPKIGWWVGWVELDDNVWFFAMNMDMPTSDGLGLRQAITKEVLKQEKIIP
Data set [9] deals with CC1(C)S[C@@H]2[C@H](NC(=O)[C@H](N)c3ccccc3)C(=O)N2[C@H]1C(=O)O. The experiment in a line: purified protein, by the assay type. The following applies: other: substrate hydrolysis, 25°C, 0.1 M phosphate buffer pH 7.0, 50 mM NaHCO3, error = 95% CI.
In data set [10] the test system is CCN1CCN(C(=O)N[C@@H](C(=O)N[C@@H]2C(=O)N3[C@@H]2SC(C)(C)[C@@H]3C(=O)O)c2ccccc2)C(=O)C1=O. The experiment in a line: purified protein, by the assay type. The following applies: other: substrate hydrolysis, 25°C, 0.1 M phosphate buffer pH 7.0, 50 mM NaHCO3, error = 95% CI.
Data set [11] concerns CO/N=C(\C(=O)N[C@@H]1C(=O)N2C(C(=O)[O-])=C(C[N+]3(C)CCCC3)CS[C@H]12)c1csc(N)n1. Put plainly: purified protein, by the assay type. The conditions noted are these: other: substrate hydrolysis, 25°C, 0.1 M phosphate buffer pH 7.0, 50 mM NaHCO3, error = 95% CI.
Data set [12] deals with C[C@@H](O)[C@H]1C(=O)N2C(C(=O)O)=C(S[C@@H]3CN[C@H](C(=O)N(C)C)C3)[C@H](C)[C@H]12. The experiment in a line: purified protein, by the assay type. The conditions noted are these: other: substrate hydrolysis, 25°C, 0.1 M phosphate buffer pH 7.0, 50 mM NaHCO3, error = 95% CI.
For data set [13], the system named is C[C@@H](O)[C@H]1C(=O)N2C(C(=O)O)=C(SCCN=CN)C[C@H]12. Put plainly: purified protein, by the assay type. The following applies: other: substrate hydrolysis, 25°C, 0.1 M phosphate buffer pH 7.0, 50 mM NaHCO3, error = 95% CI.
Data set [14] concerns O=C(Cc1cccs1)N[C@@H]1C(=O)N2C(C(=O)O)=C(/C=C/c3ccc([N+](=O)[O-])cc3[N+](=O)[O-])CS[C@H]12. The experiment in a line: purified protein, by the assay type. The following applies: other: substrate hydrolysis, 25°C, 0.1 M phosphate buffer pH 7.0, 50 mM NaHCO3, error = 95% CI.
Data set [15] deals with CC(C)(O/N=C(\C(=O)N[C@@H]1C(=O)N2C(C(=O)[O-])=C(C[n+]3ccccc3)CS[C@H]12)c1csc(N)n1)C(=O)O. The experiment in a line: purified protein, by the assay type. The conditions noted are these: other: substrate hydrolysis, 25°C, 0.1 M phosphate buffer pH 7.0, 50 mM NaHCO3, error = 95% CI.

On to `CO/N=C(\C(=O)N[C@@H]1C(=O)N2C(C(=O)O)=C(COC(C)=O)CS[C@H]12)c1csc(N)n1` [FOT, cefotaxime], for which the MIC in [1] (Table 6, MP100, read-out: MIC) was 0.12 µg/mL (≈ 0.263 µM); in data set [2], 1 µg/mL (≈ 2.2 µM); in data set [3], 0.25 µg/mL (≈ 0.549 µM); in [4] (Table 3, read-out: MIC) it was 0.12 µg/mL (≈ 0.263 µM); in [5], 0.25 µg/mL (≈ 0.549 µM); in data set [6], 0.5 µg/mL (≈ 1.1 µM). In data set [7], this molecule registered an MIC of 0.25 µg/mL (≈ 0.549 µM).

As for `C[C@@H](O)[C@H]1C(=O)N2C(C(=O)O)=C(SCCN=CN)C[C@H]12` [IMI, imipenem], the MIC in data set [1] came to 0.12 µg/mL (≈ 0.401 µM); in data set [2] it was 0.25 µg/mL (≈ 0.835 µM); in data set [3], 0.25 µg/mL (≈ 0.835 µM); in data set [4], 0.25 µg/mL (≈ 0.835 µM); in data set [5] it was 1 µg/mL (≈ 3.34 µM); in data set [6], 1 µg/mL (≈ 3.34 µM). Moreover, the MIC in data set [7] worked out at 0.25 µg/mL (≈ 0.835 µM). Moreover, the Michaelis constant (Km) in data set [8] is 4.2 ± 0.9 µM. For the same molecule, in data set [8], the catalytic constant (kcat) was 0.80 ± 0.04 s⁻¹.

In the case of `C[C@@H](O)[C@H]1C(=O)N2C(C(=O)O)=C(S[C@@H]3CN[C@H](C(=O)N(C)C)C3)[C@H](C)[C@H]12` [MEM, meropenem], the MIC in data set [1] (Table 6, MP100, read-out: MIC) was found to be 0.03 µg/mL (≈ 0.0782 µM); in data set [2], 0.06 µg/mL (≈ 0.156 µM); in data set [3] it was 0.06 µg/mL (≈ 0.156 µM); in [4] (Table 3, read-out: MIC) it was 0.03 µg/mL (≈ 0.0782 µM); in data set [5] it was 0.25 µg/mL (≈ 0.652 µM); in data set [6], 0.25 µg/mL (≈ 0.652 µM). In data set [7], this molecule gave an MIC of 0.03 µg/mL (≈ 0.0782 µM). Also, the Km in data set [8] was found to be 3 ± 1 µM. Moreover, the kcat result in data set [8] was “(8 ± 0.8) × 10^−4 s^−1”.

`O=C(Cc1cccs1)N[C@@H]1C(=O)N2C(C(=O)O)=C(/C=C/c3ccc([N+](=O)[O-])cc3[N+](=O)[O-])CS[C@H]12` [NIT, nitrocefin]: the kcat in data set [8] is 37 ± 2 s⁻¹. For the same molecule, the Km in data set [8] (read-out: Km) came out at 53 ± 8 µM.

On to `CCN1CCN(C(=O)N[C@@H](C(=O)N[C@@H]2C(=O)N3[C@@H]2SC(C)(C)[C@@H]3C(=O)O)c2ccccc2)C(=O)C1=O` [PIP, piperacillin], for which, in data set [8] (read-out: Km), the Km was 290 ± 67 µM.

Turning to `CO[C@@]1(NC(=O)C(C(=O)O)c2ccsc2)C(=O)N2[C@@H](C(=O)O)C(C)(C)S[C@@H]21` (some centres unmarked) [TRM, temocillin], the MIC was found to be 8 µg/mL (≈ 19.3 µM) in data set [1] (Table 6, MP100, read-out: MIC); 128 µg/mL (≈ 309 µM) in data set [2]; 32 µg/mL (≈ 77.2 µM) in data set [3]; 16 µg/mL (≈ 38.6 µM) in data set [4] (Table 3, read-out: MIC); 256 µg/mL (≈ 618 µM) in data set [5]; 256 µg/mL (≈ 618 µM) in data set [6]. This molecule displayed an MIC in data set [7] of 64 µg/mL (≈ 154 µM).

Consider OXA-48 (Klebsiella pneumoniae), for which the Michaelis-Menten constant (Km) was 370 ± 70 µM in data set [9]; 898 ± 155 µM in [10]; 1,678 ± 686 µM in data set [11]; 4 ± 1 µM in data set [12]; 13 ± 2 µM in data set [13]; 226 ± 34 µM in data set [14]. For the same molecule, the Km in [15] is reported as 300 ± 150 µM. Besides, the kcat was 608 ± 53 s⁻¹ in data set [9]; 3.9 ± 0.5 s⁻¹ in data set [10]; 1.7 ± 0.6 s⁻¹ in [11]; 0.71 ± 0.02 s⁻¹ in data set [12]; 4.8 ± 0.2 s⁻¹ in [13]; 141 ± 12 s⁻¹ in data set [14]. Also, the kcat in data set [15] was found to be 3 ± 0.8 s⁻¹. Moreover, the kcat/Km in [9] turned out to be 1.64e+06 ± 455000 M⁻¹ s⁻¹; in data set [10], 4000 ± 1000 M⁻¹ s⁻¹; in [11] it was 1000 ± 800 M⁻¹ s⁻¹; in data set [12], 177000 ± 50000 M⁻¹ s⁻¹; in data set [13], 365000 ± 71000 M⁻¹ s⁻¹; in [14], 624000 ± 148000 M⁻¹ s⁻¹. Also, the kcat/Km in data set [15] amounted to 10000 ± 8000 M⁻¹ s⁻¹.

As usually defined, the Km is the substrate concentration at which the rate is half of its maximum. A word on the kcat: it is the number of substrate molecules converted per active site and unit of time at saturation. What is called kcat/Km is the turnover number divided by the Michaelis constant.
